{
  "source": "patent US9181290B2",
  "about": "“Inhibition of biofilm formation by 1,2,3,4,6-penta-O-galloyl-D-glucopyranose” (CHANG GUNG UNIVERSITY, priority 2011, dated 2015)",
  "key": {"[1]": {"test_system": "polysaccharide intercellular adhesion (PIA) production by S. aureus SA113", "assay": "Quantification of PIA by chemiluminescence (WGA-biotin/HRP-streptavidin)", "format": "cell-based, Staphylococcus aureus", "settings": "6 hrs; for decrease of the amount of PIA formed on the cell surface: densitometer, untreated = 100%", "experimental": "The amount of PIA was determined by chemiluminescence detection using horseradish peroxidase-conjugated streptavidin (Pierce) according to a method described elsewhere (S. Schlag et al. (2007), supra). Briefly, a tested bacterial strain prepared in TSBg broth was added with β-PGG at a designated concentration and then cultured in a 9 cm petri dish for 6 hrs. The bacterial cells grown in the petri dish were collected by scraping, followed by centrifugation, and the resultant cell pellets were redissolved by addition of 3 mL of 0.5 M EDTA (pH 8.0) for every gram (wet weight) of cell pellet, followed by boiling at 100° C. for 10 min. After centrifugation at 10,000 g for 30 min, the resultant supernatant was 100-fold diluted. An 80 μL aliquot of the diluted supernatant was incubated with 20 μL of proteinase K (10 mg/mL, in dH2O) at 37° C. for 2 hrs, followed by blotting onto a PVDF membrane (Millipore) using a 96-well dot-blot apparatus. After blotting, the membrane was dried and soaked in a first blocking buffer (containing 3% bovine serum albumin (BSA) and 0.05% Tween-20 in PBS), followed by incubation at room temperature for 1 hr in the first blocking buffer containing 0.8 μg/mL wheat germ agglutinin conjugated with biotin (WGA-biotin, Sigma-Aldrich). After sequentially washing with the first blocking buffer and a second blocking buffer (containing 1% BSA and 0.05% Tween-20 in PBS), the membrane was incubated with horseradish peroxidase-conjugated streptavidin (Pierce) for 30 min, and washed 4 times with the first blocking buffer, followed by incubation with 1 mL of a substrate reagent (Luminol/Enhancer solution and Stable Peroxide solution, Pierce) at room temperature for 5 min. Thereafter, the membrane was detected by autoradiography using X-ray film, and the intensity of each spot formed on the X-ray film was quantified using a densitometer (LAS-3000, Fujifilm). The relative PIA amount produced by the tested bacterial strain was determined based on the detected intensity, with the amount of PIA from bacterial cells without PGG treatment being set as 100%.\nTo detect PIA in culture medium, the medium was concentrated using an Amicon-Ultra4 centrifuge filter (Millipore, Billerica, Mass., USA) prior to extraction.\nSimilar experiments were performed using four clinical isolates of S. aureus, namely MSSA strains SA13 and SA288, and MRSA strains SA44 and SA 130."}, "S. aureus SA113": {"test_system": "S. aureus SA113", "assay": "Fluorescence microscopy of adhered cells after Syto 9 staining", "format": "cell-based, Staphylococcus aureus", "settings": "6.25 μM and 12.5 μM, 60 min", "experimental": "Meanwhile, cells adhering to the polystyrene or polycarbonate surfaces were washed off with PBS at 60 min after seeding and stained with Syto 9 (Invitrogen), a green florescence dye that stains nucleic acids, followed by observation under a fluorescence microscope.\nThe cells adhering to the polystyrene surface and polycarbonate surface after treatment with 0 μM, 6.25 μM and 12.5 μM β-PGG for 60 min were also examined under a fluorescent microscope after Syto 9 staining."}, "S. carnosus TM300": {"test_system": "S. carnosus TM300", "assay": "Growth (A578) and biofilm (A595) in polystyrene plates", "format": "cell-based", "settings": "12.5 μM β-PGG, 6 hr", "experimental": "(§1) In addition to the above S. aureus strains, S. epidermidis ATCC 35547 and S. epidermidis RP62A (ATCC 35984) were also studied for comparison.\n(§2) An overnight bacterial culture was 200-fold diluted with TSBg, and a 200 μL aliquot of the diluted culture was seeded into each well of 96-well polystyrene microtiter plates and incubated at 37° C. for a designated period of time. Cell growth was determined by measuring the absorbance at 578 nm (A578) with a microtiter plate reader (SpectraMax 340, Molecular Devices). After washing with PBS twice to remove suspended cells, the wells were stained with 0.1% (w/v) crystal violet in 10% ethanol and then treated with 30% acetic acid in dH2O, followed by detecting the absorbance at 595 nm (A595) with the microtiter plate reader to quantify the amount of biofilm formed on polystyrene surface."}, "[2]": {"test_system": "S. epidermidis ATCC 35547", "assay": "Growth (A578) and biofilm (A595) in polystyrene plates", "format": "cell-based, Staphylococcus epidermidis", "settings": "12.5 μM β-PGG, 6 hr", "experimental": "as §1, §2"}, "[3]": {"test_system": "S. epidermidis RP62A (ATCC 35984)", "assay": "Growth (A578) and biofilm (A595) in polystyrene plates", "format": "cell-based, Staphylococcus epidermidis", "experimental": "as §1, §2"}},
  "data": [
    {"smiles": "O=C(OC[C@H]1O[C@@H](OC(=O)c2cc(O)c(O)c(O)c2)[C@H](OC(=O)c2cc(O)c(O)c(O)c2)[C@@H](OC(=O)c2cc(O)c(O)c(O)c2)[C@@H]1OC(=O)c1cc(O)c(O)c(O)c1)c1cc(O)c(O)c(O)c1", "note": "[β-PGG, 1,2,3,4,6-penta-O-galloyl-β-D-glucopyranose]", "values": [
      {"measurement": "decrease of the amount of PIA formed on the cell surface", "setting": "[1]; 3.13 μM", "value": 7, "unit": "%"},
      {"measurement": "decrease of the amount of PIA formed on the cell surface", "setting": "[1]; 12.5 μM", "value": 58, "unit": "%"},
      {"measurement": "decrease of the amount of PIA formed on the cell surface", "setting": "[1]; 50 μM", "value": 87, "unit": "%"},
      {"measurement": "PIA production (extracted from bacterial cells)", "setting": "[1]; 3.13, 12.5 and 50 μM", "value": "PIA production was inhibited"},
      {"measurement": "PIA released into the culture medium", "setting": "[1]; 3.13, 12.5 and 50 μM", "value": "decreased after β-PGG treatment in a dose-dependent manner"},
      {"measurement": "cells attached to polystyrene and polycarbonate surfaces (Syto 9)", "setting": "S. aureus SA113", "value": "significantly reduced the number of cells attached"},
      {"measurement": "Biofilm (A595)", "setting": "S. carnosus TM300; 0 μM: 0.12 ± 0.01, non-biofilm negative control strain", "value": "0.10 ± 0.01"},
      {"measurement": "Growth (A578)", "setting": "S. carnosus TM300; 0 μM: 0.69 ± 0.02", "value": "0.70 ± 0.01"},
      {"measurement": "Growth (A578)", "setting": "[2]; 0 μM: 0.50 ± 0.01", "value": "0.42 ± 0.01"},
      {"measurement": "Biofilm (A595)", "setting": "[2]; 0 μM: 1.42 ± 0.09", "value": "0.15 ± 0.11"},
      {"measurement": "reduction of biofilm formation", "setting": "[3]; 12.5 μM", "value": 35, "unit": "%"},
      {"measurement": "Growth (A578)", "setting": "[3]; 12.5 μM β-PGG, 6 hr, 0 μM: 0.57 ± 0.09", "value": "0.56 ± 0.09"},
      {"measurement": "Biofilm (A595)", "setting": "[3]; 12.5 μM β-PGG, 6 hr, 0 μM: 6.43 ± 0.04", "value": "4.18 ± 0.54"}
    ]}
  ]
}
